Molecules are shown by their SMILES. Where two headings read alike, the source gives them in different places.

This passage reports MIC results from patent US11839212B2, “Synergistic pesticidal compositions and methods for delivery of insecticidal active ingredients” (0903608 B.C. Ltd., priority 2018, dated 2023).

Holding throughout (test): Synergistic Growth Inhibition Assay (MIC and FIC index, 96-well, resazurin)
Common to all, as to type: cell-based

In one experiment the test system is Fusarium oxysporum. The settings on record: Fusarium oxysporum, Compound B alone. Put shortly:
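Checkerboard dilutions of pesticidal active plus C6–C10 (or C11/C12) aliphatic acid in 96-well plates; growth scored by resazurin colour change, optionally visual.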

A further experiment relates to Botrytis cinerea. As to conditions: Botrytis cinerea, 48 h, Compound B alone. Put shortly:
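Checkerboard microdilution of pesticidal active ingredient combined with C6–C10 (or C11/C12) aliphatic acid against Botrytis cinerea, with growth read by resazurin colour change plus visual check. FIC index = sum of each agent's concentration in the inhibiting well divided by its MIC alone; 1 denotes additivity.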

The test system of the next experiment is Sclerotinia sclerotiorum. As to conditions: Sclerotinia sclerotiorum, […], Compound B alone. Put shortly:
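Checkerboard of pesticidal active ingredient combined with C6–C10 (or C11/C12) aliphatic acids in serial dilutions against Sclerotinia sclerotiorum. Growth scored by resazurin colour change plus visual inspection; FIC index is the sum of each agent's concentration divided by its MIC alone, with 1 indicating additivity.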

In another experiment the test system is Alternaria solani. The settings on record: Alternaria solani, […], read-out: MIC (B). The method, then: In some embodiments, the synergistic action between the pesticidal active ingredient, and the at least one C6-C10 (or alternatively C11 or C12) saturated or unsaturated aliphatic acid components of the pesticidal compositions according to embodiments of the present disclosure was tested using a Synergistic Growth Inhibition Assay, which is derived from and related to a checkerboard assay as is known in the art for testing of combinations of antimicrobial agents. In the Synergistic Growth Inhibition Assay used in accordance with some embodiments of the present disclosure, multiple dilutions of combinations of pesticidal active ingredient and at least one C6-C10 saturated or unsaturated aliphatic acid agents are tested in individual cells for inhibitory activity against a target pest or pathogenic organism. In one such embodiment, the combinations of pesticidal active ingredient and C6-C10 (or alternatively C11 or C12) saturated or unsaturated aliphatic acid agents may preferably be tested in decreasing concentrations. In a further such embodiment, the combinations of pesticidal active ingredient and C6-C10 (or alternatively C11 or C12) saturated or unsaturated aliphatic acid agents may be tested in increasing concentrations. These multiple combinations of the pesticidal active ingredient and at least one C6-C10 (or alternatively C11 or C12) saturated or unsaturated aliphatic acid agents may be prepared in 96-well microtiter plates. In one such embodiment, the Synergistic Growth Inhibition Assay then comprises rows which each contain progressively decreasing concentrations of the pesticidal active ingredient and one or more C6-C10 (or alternatively C11 or C12) saturated or unsaturated aliphatic acid agents to test for the MIC of the agents in combination at which growth of the target pest or pathogen is inhibited. Thus, each well of the microtiter plate is a unique combination of the two agents, at which inhibitory efficacy of the combination against the target pest or pathogen can be determined.
In one embodiment according to the present disclosure, for each row of microtiter cells in the Synergistic Growth Inhibition Assay, the FIC index is calculated from the lowest concentration of the pesticidal active ingredient and one or more C6-C10 saturated or unsaturated aliphatic acid agents necessary to inhibit growth of a target pest or pathogen. The FIC of each component is derived by dividing the concentration of the agent present in that well of the microtiter plate by the minimal inhibitory concentration (MIC) needed of that agent alone to inhibit growth of the target pest or pathogen. The FIC index is then the sum of these values for both agents in that well of the microtiter plate. […] Fractional inhibitory concentration indices may then used as measure of synergy. […] When the FIC index is equal to 1, the combination is additive.
Then, serial dilutions of these initial compositions in successive wells in the row of the microtiter plate were used to assay the pesticidal composition under the same conditions to determine the concentration of the composition combining the two agents corresponding to the microtiter well in which growth inhibition of the target pest or organism ceases.
A culture of the representative fungal pathogen, namely Fusarium oxysporum, Botrytis cinerea, or Sclerotinia sclerotiorum, for example, is grown to exponential phase in potato dextrose broth (PDB).

The mark [1] stands for this setting: 48 h, Table 27, 48 hours incubation, read-out: MIC (B).
Where [2] appears, read: 48 h, Table 28, 48 hours incubation, read-out: MIC (B).
Where [3] appears, read: 48 h, Table 30, 48 hours incubation, read-out: MIC (B).
Setting [4] is: 48 h, Table 31, 48 hours incubation, read-out: MIC (B).
Where [5] appears, read: Table 43, 48 hours incubation, read-out: MIC (B).
The mark [6] stands for this setting: Table 44, 48 hours incubation, read-out: MIC (B).
Setting [7] is: Table 47, 48 hours incubation, read-out: MIC (B).
[8] abbreviates: Table 49, 48 hours incubation, read-out: MIC (B).
The mark [9] stands for this setting: 7 days incubation, read-out: MIC (B).
[10] abbreviates: Table 33, 7 days incubation, read-out: MIC (B).
[11] abbreviates: Table 35, 7 days incubation, read-out: MIC (B).
Setting [12] is: Table 39, 7 days incubation, read-out: MIC (B).
Where [13] appears, read: Table 41, 7 days incubation, read-out: MIC (B).
[14] abbreviates: Table 60, Compound B alone, 7 days incubation.
Where [15] appears, read: Table 51, 48 hours incubation, read-out: MIC (B).
[16] abbreviates: Table 56, 48 hours incubation, read-out: MIC (B).
Where [17] appears, read: Compound B alone, 7 days incubation.
Where [18] appears, read: Table 45, 48 hours incubation, read-out: MIC (B).
Where [19] appears, read: Table 34, 7 days incubation, read-out: MIC (B).
The mark [20] stands for this setting: 24 h, Table 3, 24 hour incubation, read-out: MIC(B).
The mark [21] stands for this setting: 24 h, Table 4, 24 hour incubation, read-out: MIC (B).
The mark [22] stands for this setting: 48 h, Table 32, 48 hours incubation, read-out: MIC (B).
[23] abbreviates: Table 37, 7 days incubation, read-out: MIC (B).
The mark [24] stands for this setting: Table 38, 7 days incubation, read-out: MIC (B).

For the compound `CCCC=CCC(=O)O` [3-Heptenoic acid], the MIC in the experiment on Fusarium oxysporum (setting [1]) came to 156 µg/mL; in the experiment on Fusarium oxysporum (setting [2]), 156 µg/mL; in the experiment on Fusarium oxysporum (48 h, Table 29, 48 hours incubation, read-out: MIC (B)) it was 156 µg/mL; in the experiment with Fusarium oxysporum (setting [3]), 156 µg/mL; with Fusarium oxysporum (setting [4]), 156 µg/mL; in the experiment on Botrytis cinerea (setting [5]), 78.1 µg/mL. Moreover, the MIC in the experiment on Botrytis cinerea (setting [6]) is 78.1 µg/mL; in the experiment with Botrytis cinerea (setting [7]), 78.1 µg/mL; with Botrytis cinerea (setting [8]), 78.1 µg/mL; in the experiment on Sclerotinia sclerotiorum (setting [9]), 156 µg/mL; in the experiment with Sclerotinia sclerotiorum (setting [10]) it was 78.1 µg/mL; in the experiment with Sclerotinia sclerotiorum (setting [11]), 78.1 µg/mL. Besides, the MIC was determined as 78.1 µg/mL in the experiment on Sclerotinia sclerotiorum (setting [12]), 78.1 µg/mL in the experiment with Sclerotinia sclerotiorum (setting [13]) and 312 µg/mL with Alternaria solani (setting [14]).
Turning to `CC(O)CC(=O)O` (stereo not shown) [3-Hydroxybutyric acid, 3-hydroxybutyric acid], the minimum inhibitory concentration (MIC) with Fusarium oxysporum (48 h, Table 10, incubation 48 hours, read-out: MIC (B)) is 10000 µg/mL; in the experiment on Fusarium oxysporum (48 h, Table 15B, incubation 48 hours, read-out: MIC (B)) it was 10000 µg/mL; in the experiment on Botrytis cinerea (setting [15]), 10000 µg/mL; in the experiment with Botrytis cinerea (setting [16]), 10000 µg/mL; with Botrytis cinerea (Table 59, 48 hours incubation, read-out: MIC (B)), 5000 µg/mL; in the experiment on Sclerotinia sclerotiorum (Table 16, incubation 7 days, read-out: MIC (B)), 10000 µg/mL. Besides, the MIC in the experiment on Sclerotinia sclerotiorum (Table 20B, incubation 7 days, read-out: MIC (B)) was found to be 5000 µg/mL; with Alternaria solani (setting [17]) it was 5000 µg/mL.
For the compound `CC/C=C/CC(=O)O` [Trans-3-hexenoic acid, trans-3-hexenoic acid], the MIC with Fusarium oxysporum (24 h, Table 1, 24 hour incubation, read-out: MIC(B)) came out at 312 µg/mL; in the experiment on Fusarium oxysporum (24 h, Table 2, 24 hour incubation, read-out: MIC (B)), 312 µg/mL; in the experiment with Fusarium oxysporum (setting [1]), 312 µg/mL; in the experiment on Fusarium oxysporum (setting [2]), 312 µg/mL; in the experiment with Fusarium oxysporum (setting [3]), 312 µg/mL; in the experiment on Fusarium oxysporum (setting [4]) it was 156 µg/mL. Also, the MIC amounted to 156 µg/mL with Botrytis cinerea (setting [5]); 156 µg/mL in the experiment on Botrytis cinerea (setting [6]); 312 µg/mL with Botrytis cinerea (setting [18]); 312 µg/mL in the experiment on Sclerotinia sclerotiorum (setting [9]); 156 µg/mL in the experiment on Sclerotinia sclerotiorum (setting [10]); 156 µg/mL with Sclerotinia sclerotiorum (setting [19]). Also, the MIC in the experiment on Sclerotinia sclerotiorum (setting [11]) came out at 156 µg/mL; in the experiment with Sclerotinia sclerotiorum (setting [13]), 156 µg/mL; in the experiment on Alternaria solani (setting [14]) it was 312 µg/mL.
Turning to `CCCCC=CCC(=O)O` [3-Octenoic acid, 3-octenoic acid], the MIC was found to be 147 µg/mL with Fusarium oxysporum (setting [20]); 147 µg/mL in the experiment with Fusarium oxysporum (setting [21]); 156 µg/mL in the experiment on Fusarium oxysporum (setting [3]); 156 µg/mL in the experiment with Fusarium oxysporum (setting [4]); 156 µg/mL in the experiment with Fusarium oxysporum (setting [22]); 156 µg/mL in the experiment on Alternaria solani (setting [14]).
With `CCCCCC=CCC(=O)O` [3-Nonenoic acid], the MIC was 156 µg/mL in the experiment with Fusarium oxysporum (setting [22]); 78.1 µg/mL in the experiment on Botrytis cinerea (setting [5]); 78.1 µg/mL with Botrytis cinerea (setting [6]); 78.1 µg/mL in the experiment with Botrytis cinerea (setting [18]); 78.1 µg/mL with Botrytis cinerea (setting [7]); 78.1 µg/mL in the experiment with Botrytis cinerea (Table 48, 48 hours incubation, read-out: MIC (B)). For the same compound, the minimal inhibitory concentration (MIC) in the experiment with Botrytis cinerea (setting [8]) is 78.1 µg/mL; with Botrytis cinerea (Table 54, 48 hours incubation, read-out: MIC (B)), 78.1 µg/mL; with Sclerotinia sclerotiorum (setting [9]), 78.1 µg/mL; in the experiment on Sclerotinia sclerotiorum (setting [10]), 19.5 µg/mL; in the experiment with Sclerotinia sclerotiorum (setting [11]) it was 39.1 µg/mL; with Sclerotinia sclerotiorum (Table 36, 7 days incubation, read-out: MIC (B)) it was 39.1 µg/mL. The MIC in the experiment on Sclerotinia sclerotiorum (setting [23]) was found to be 78.1 µg/mL; with Sclerotinia sclerotiorum (setting [24]), 78.1 µg/mL; in the experiment with Sclerotinia sclerotiorum (setting [13]), 39.1 µg/mL; in the experiment with Alternaria solani (setting [14]), 78.1 µg/mL.
As to `CCCC/C=C/CC(=O)O` [Trans-3-octenoic acid], the MIC in the experiment on Fusarium oxysporum (setting [1]), in the experiment with Fusarium oxysporum (setting [3]), with Fusarium oxysporum (setting [22]), in the experiment on Alternaria solani (setting [17]) and with Alternaria solani (setting [14]) was 156 µg/mL throughout.
Consider `CCCCCC(=O)O` [Hexanoic acid, hexanoic acid], for which the minimum inhibitory concentration (MIC) was 145 µg/mL with Fusarium oxysporum (24 h, read-out: MIC(B), Table 7, 24 hour incubation); 290 µg/mL in the experiment with Fusarium oxysporum (read-out: MIC (B), Table 8); 78.1 µg/mL in the experiment with Botrytis cinerea (read-out: MIC (B), Table 21, incubation 48 hours); 78.1 µg/mL in the experiment with Botrytis cinerea (read-out: MIC (B), Table 22, incubation 48 hours); 78.1 µg/mL with Botrytis cinerea (read-out: MIC (B), Table 25, 48 hours incubation); 39.1 µg/mL in the experiment on Sclerotinia sclerotiorum (read-out: MIC (B), Table 16, incubation 7 days). The MIC in the experiment with Sclerotinia sclerotiorum (read-out: MIC (B), Table 17, incubation 7 days) was 39.1 µg/mL; in the experiment on Sclerotinia sclerotiorum (read-out: MIC (B), Table 19, incubation 7 days), 78.1 µg/mL; in the experiment with Alternaria solani, 156 µg/mL.
Consider `CCCCCCC/C=C/C(=O)O` [Trans-2-decenoic acid, trans-2-decenoic acid], for which the MIC in the experiment with Fusarium oxysporum (setting [20]) is 36.2 µg/mL; in the experiment on Fusarium oxysporum (setting [21]), 36.2 µg/mL; with Fusarium oxysporum (setting [3]), 78.1 µg/mL; in the experiment on Fusarium oxysporum (setting [22]) it was 156 µg/mL; in the experiment on Botrytis cinerea (setting [5]) it was 19.5 µg/mL; in the experiment with Botrytis cinerea (setting [6]), 78.1 µg/mL. In addition, the MIC in the experiment on Botrytis cinerea (setting [18]) came out at 39.1 µg/mL; in the experiment with Botrytis cinerea (setting [8]), 78.1 µg/mL; in the experiment on Botrytis cinerea (Table 50, 48 hours incubation, read-out: MIC (B)), 39.1 µg/mL; with Botrytis cinerea (setting [15]) it was 19.5 µg/mL; in the experiment on Botrytis cinerea (setting [16]), 78.1 µg/mL; in the experiment on Botrytis cinerea (Table 58, 48 hours incubation, read-out: MIC (B)), 156 µg/mL. The MIC in the experiment with Sclerotinia sclerotiorum (setting [9]) stood at 19.5 µg/mL; in the experiment on Sclerotinia sclerotiorum (setting [10]), 19.5 µg/mL; in the experiment with Sclerotinia sclerotiorum (setting [19]), 19.5 µg/mL; with Sclerotinia sclerotiorum (setting [11]) it was 9.77 µg/mL; in the experiment on Sclerotinia sclerotiorum (setting [23]) it was 39.1 µg/mL; in the experiment on Sclerotinia sclerotiorum (setting [24]), 19.5 µg/mL. Also, the minimal inhibitory concentration (MIC) came to 19.5 µg/mL in the experiment on Sclerotinia sclerotiorum (setting [12]); 19.5 µg/mL in the experiment on Sclerotinia sclerotiorum (Table 40, 7 days incubation, read-out: MIC (B)); 19.5 µg/mL in the experiment on Sclerotinia sclerotiorum (Table 42, incubation 7 days, read-out: MIC (B)); 39.1 µg/mL with Alternaria solani (setting [17]); 78.1 µg/mL in the experiment with Alternaria solani (setting [14]).
